pIC50, pKi: −log10 of the molar value.
Experiments:
[1] = target: T1, Yersiniabactin biosynthetic protein (Yersinia pestis, UniProt A0A2S9PH42)
[2] = Inhibition of aminoacyl tRNA synthetase in T7 coupled rabbit reticulocyte lysate assessed as reduction in transcription/translation of luciferase template DNA propagated in Escherichia coli DH5alpha after 90 mins; design: species or system Oryctolagus cuniculus
[3] = Drug uptake in Bacillus subtilis ATCC 6051 at 100 uM by LC-MS/Ms analysis; assay type: ADME
[4] = Drug uptake in Escherichia coli ATCC 25922 at 100 uM by LC-MS/Ms analysis; assay type: ADME; conditions: escherichia coli atcc 25922, 100 µM
[5] = Drug uptake in Mycobacterium smegmatis ATCC 700084 at 100 uM by LC-MS/Ms analysis; assay type: ADME; conditions: mycolicibacterium smegmatis
[6] = target: T1, Yersiniabactin biosynthetic protein; conditions: read-out: Ki(app)

T1 sequence (A0A2S9PH42 whole entry): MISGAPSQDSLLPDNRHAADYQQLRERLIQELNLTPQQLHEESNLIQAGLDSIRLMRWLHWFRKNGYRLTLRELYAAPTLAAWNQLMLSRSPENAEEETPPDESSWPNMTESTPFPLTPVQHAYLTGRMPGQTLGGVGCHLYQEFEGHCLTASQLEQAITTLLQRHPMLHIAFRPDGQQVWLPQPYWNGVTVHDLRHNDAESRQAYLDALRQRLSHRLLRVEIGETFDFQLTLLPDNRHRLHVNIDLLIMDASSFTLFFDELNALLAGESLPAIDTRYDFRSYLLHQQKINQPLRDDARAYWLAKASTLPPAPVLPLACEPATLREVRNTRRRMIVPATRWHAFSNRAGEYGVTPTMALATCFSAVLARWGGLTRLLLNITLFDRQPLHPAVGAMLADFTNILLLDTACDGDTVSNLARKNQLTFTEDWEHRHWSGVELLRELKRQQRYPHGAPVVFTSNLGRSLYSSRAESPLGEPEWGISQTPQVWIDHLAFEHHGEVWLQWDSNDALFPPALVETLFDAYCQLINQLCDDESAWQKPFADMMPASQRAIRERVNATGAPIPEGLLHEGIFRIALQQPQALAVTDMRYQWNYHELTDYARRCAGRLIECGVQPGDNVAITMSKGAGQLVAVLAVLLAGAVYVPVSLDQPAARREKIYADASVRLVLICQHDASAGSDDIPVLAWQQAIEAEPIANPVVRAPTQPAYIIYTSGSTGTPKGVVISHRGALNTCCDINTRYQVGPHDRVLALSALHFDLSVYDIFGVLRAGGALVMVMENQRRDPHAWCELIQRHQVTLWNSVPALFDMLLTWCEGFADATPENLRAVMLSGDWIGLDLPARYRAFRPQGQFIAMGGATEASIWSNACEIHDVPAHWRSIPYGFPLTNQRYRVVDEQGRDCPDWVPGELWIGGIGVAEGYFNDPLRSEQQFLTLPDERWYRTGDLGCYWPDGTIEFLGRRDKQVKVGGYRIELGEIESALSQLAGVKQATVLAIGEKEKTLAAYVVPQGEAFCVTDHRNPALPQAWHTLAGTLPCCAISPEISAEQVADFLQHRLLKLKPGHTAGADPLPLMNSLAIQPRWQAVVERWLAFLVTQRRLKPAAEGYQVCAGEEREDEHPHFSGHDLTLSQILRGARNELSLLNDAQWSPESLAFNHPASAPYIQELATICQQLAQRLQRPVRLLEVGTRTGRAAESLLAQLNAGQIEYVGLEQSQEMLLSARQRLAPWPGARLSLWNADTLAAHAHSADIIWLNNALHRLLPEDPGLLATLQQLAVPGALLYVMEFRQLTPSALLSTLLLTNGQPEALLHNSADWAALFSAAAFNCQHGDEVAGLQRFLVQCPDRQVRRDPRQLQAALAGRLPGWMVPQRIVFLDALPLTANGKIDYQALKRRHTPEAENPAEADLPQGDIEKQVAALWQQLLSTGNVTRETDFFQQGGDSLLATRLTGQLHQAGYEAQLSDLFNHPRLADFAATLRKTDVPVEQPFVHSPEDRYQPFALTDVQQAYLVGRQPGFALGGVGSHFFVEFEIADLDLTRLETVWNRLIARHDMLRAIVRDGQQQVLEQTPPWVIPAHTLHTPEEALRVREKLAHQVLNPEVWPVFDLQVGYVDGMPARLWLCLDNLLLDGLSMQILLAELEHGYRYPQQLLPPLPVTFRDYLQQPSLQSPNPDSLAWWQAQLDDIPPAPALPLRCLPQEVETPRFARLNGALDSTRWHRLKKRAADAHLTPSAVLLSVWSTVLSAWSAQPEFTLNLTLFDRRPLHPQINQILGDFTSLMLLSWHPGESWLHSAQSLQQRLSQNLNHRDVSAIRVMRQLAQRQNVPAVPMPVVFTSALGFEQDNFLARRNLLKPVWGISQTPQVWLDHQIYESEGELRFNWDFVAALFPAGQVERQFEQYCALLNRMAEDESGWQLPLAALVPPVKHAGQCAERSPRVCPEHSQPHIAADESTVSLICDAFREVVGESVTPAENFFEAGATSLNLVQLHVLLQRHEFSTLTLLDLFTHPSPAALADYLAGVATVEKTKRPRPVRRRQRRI

Structure (SMILES)	pIC50 [1]	pIC50 [2]	Drug uptake [3] [µM]	Drug uptake [4] [µM]	Drug uptake [5] [µM]	pKi [6]	Drug uptake ([3]; BLD = below limit of detection)	Drug uptake ([4]; BLD = below limit of detection)	Drug uptake ([5]; BLD = below limit of detection)
Nc1ncnc2c1ncn2[C@@H]1O[C@H](COS(=O)(=O)NC(=O)[C@@H](O)CS)[C@@H](O)[C@H]1O	4.78	3.65	–	–	–	–	–	–	–
C[C@H](O)C(=O)NS(=O)(=O)OC[C@H]1O[C@@H](n2cnc3c(N)ncnc32)[C@H](O)[C@@H]1O	< 3.00	3.78	28 to 53	28 to 53	28 to 53	–	–	–	–
Nc1ncnc2c1ncn2[C@@H]1O[C@H](COS(=O)(=O)NC(=O)[C@@H](N)CS)[C@@H](O)[C@H]1O	7.40	5.49	–	–	–	6.62	–	–	–
Nc1ncnc2c1nc1n2[C@@H]2O[C@H](COS(=O)(=O)NC(=O)[C@@H](N)CCC1)[C@@H](O)[C@H]2O	6.47	< 3.60	–	–	–	5.77	–	–	–
Nc1ncnc2c1nc1n2[C@@H]2O[C@H](COS(=O)(=O)NC(=O)[C@@H](O)CCC1)[C@@H](O)[C@H]2O	< 3.00	< 3.60	–	–	–	–	–	–	–
C[C@H](N)C(=O)NS(=O)(=O)OC[C@H]1O[C@@H](n2cnc3c(N)ncnc32)[C@H](O)[C@@H]1O [ALASA]	5.94	6.80 to 6.93	–	–	–	5.60	Bld	Bld	Bld
